The text below walks through data of ChEMBL document CHEMBL1140668, “Antifungal activity in triterpene glycosides from the sea cucumber Actinopyga lecanora” (2007).

Assay [1] has as its system Cryptococcus neoformans. Kind of assay: Antifungal activity against Cryptococcus neoformans. In kind it is functional.
The test system of a further assay is Aspergillus fumigatus. The assay is described as follows: Antifungal activity against Aspergillus fumigatus. The class given is functional.
The test system of another assay is Candida parapsilosis. The assay is described as follows: Antifungal activity against Candida parapsilosis ATCC 22019. In kind it is functional. As to conditions: Lodderomyces parapsilosis.
Assay [2] has as its system Candida albicans. Kind of assay: Antifungal activity against Candida albicans. The class given is functional.
For a further assay, the system named is Trichophyton benhamiae. Kind of assay: Antifungal activity against Trichophyton mentagrophytes. In kind it is functional, Arthroderma benhamiae.
The next assay has as its system Sporothrix schenckii. The assay is described as follows: Antifungal activity against Sporothrix schenckii. The class given is functional.
Assay [3] deals with Candida albicans. The assay is described as follows: Antifungal activity against Candida albicans ATCC 10231. In kind it is functional.
The subject of assay [4] is Candida albicans. The assay is described as follows: Antifungal activity against Candida albicans MTCC 227. In kind it is functional.
The test system of assay [5] is Candida albicans. The assay is described as follows: Antifungal activity against Candida albicans ATCC 60193. The class given is functional.
The next assay relates to Aspergillus terreus. The assay is described as follows: Antifungal activity against Aspergillus terreus IMI 235704. In kind it is functional.
Assay [6] concerns Candida albicans. The assay is described as follows: Antifungal activity against Candida albicans ATCC 14053. In kind it is functional.
The test system of assay [7] is Cryptococcus neoformans. Kind of assay: Antifungal activity against Cryptococcus neoformans ATCC 6603. In kind it is functional.
For assay [8], the system named is Cryptococcus neoformans. Kind of assay: Antifungal activity against Filobasidiella neoformans MTCC 1346. In kind it is functional.
Another assay relates to Talaromyces funiculosus. Kind of assay: Antifungal activity against Penicillium funiculosum MTCC 287. The class given is functional.
The test system of a further assay is Penicillium ochrochloron. Kind of assay: Antifungal activity against Penicillium ochrochloron MTCC 517. The class given is functional.
For assay [9], the system named is Candida albicans. The assay is described as follows: Antifungal activity against Candida albicans ATCC 66027. The class given is functional.
For the next assay, the system named is Pichia kudriavzevii. Kind of assay: Antifungal activity against Candida krusei ATCC 6258. The class given is functional.
In another assay the test system is Trichophyton rubrum. Kind of assay: Antifungal activity against Trichophyton rubrum MTCC 296. In kind it is functional.
Another assay has as its system Aspergillus flavus. The assay is described as follows: Antifungal activity against Aspergillus flavus. In kind it is functional.
The test system of assay [10] is Candida albicans. Kind of assay: Antifungal activity against Candida albicans MTCC 183. In kind it is functional.

Values after ≈ are worked out from the molar mass of the structure shown.

For `CC(=O)O[C@H]1C[C@@]2(C)C3=CCC4C(C)(C)[C@@H](O[C@@H]5OC[C@@H](O)[C@H](O)[C@H]5O)CC[C@]4(C)C3CCC23C(=O)O[C@@](C)(CCCC(C)C)[C@@H]13` (some centres not stated), the MIC with Cryptococcus neoformans [1] is 25 µg/mL (≈ 38.6 µM); against Aspergillus fumigatus, 50 µg/mL (≈ 77.3 µM); with Candida parapsilosis, 50 µg/mL (≈ 77.3 µM); with Candida albicans [2] it was 50 µg/mL (≈ 77.3 µM); in the assay on Trichophyton benhamiae, 25 µg/mL (≈ 38.6 µM); in the assay on Sporothrix schenckii, 25 µg/mL (≈ 38.6 µM).
Turning to `OC(Cn1cncn1)(Cn1cncn1)c1ccc(F)cc1F` [FLUCONAZOLE], the MIC was determined as 1 µg/mL (≈ 3.27 µM) in the assay on Cryptococcus neoformans [1]; 2 µg/mL (≈ 6.53 µM) with Aspergillus fumigatus; 1 µg/mL (≈ 3.27 µM) against Candida parapsilosis; 0.5 µg/mL (≈ 1.63 µM) against Candida albicans [2]; 2 µg/mL (≈ 6.53 µM) in the assay on Trichophyton benhamiae; 1 µg/mL (≈ 3.27 µM) in the assay with Sporothrix schenckii.
Regarding `CO[C@@H]1[C@@H](O)[C@H](O[C@@H]2[C@@H](O)[C@H](O[C@H]3[C@H](O)[C@@H](O)[C@H](O[C@H]4[C@H](O[C@H]5CC[C@]6(C)C7=C[C@H](O)[C@@]89C(=O)O[C@@](C)(C%10CCC(C)(C)O%10)[C@@]8(O)CC[C@@]9(C)[C@@H]7CC[C@H]6C5(C)C)OC[C@@H](OS(=O)(=O)[O-])[C@@H]4O)O[C@@H]3C)O[C@H](CO)[C@H]2O)O[C@H](CO)[C@H]1O.[Na+]` (some centres not stated) [HOLOTHURIN A], the MIC stood at 25 µg/mL against Cryptococcus neoformans [1]; 50 µg/mL against Aspergillus fumigatus; 50 µg/mL in the assay on Candida albicans [2]; 25 µg/mL with Trichophyton benhamiae; 25 µg/mL against Sporothrix schenckii.
Take `C[C@H]1O[C@@H](O[C@H]2[C@H](O[C@H]3CC[C@]4(C)C5=C[C@H](O)C67C(=O)O[C@@](C)(C8CCC(C)(C)O8)[C@@]6(O)CC[C@@]7(C)[C@@H]5CCC4C3(C)C)OC[C@@H](OS(=O)(=O)[O-])[C@@H]2O)[C@H](O)[C@@H](O)[C@@H]1O.[Na+]` (some centres not stated) [HOLOTHURIN B]: the minimum inhibitory concentration (MIC) was found to be 25 µg/mL against Candida albicans [3]; 12.5 µg/mL in the assay on Candida albicans [4]; 3.12 µg/mL in the assay with Cryptococcus neoformans [1]; 3.12 µg/mL with Aspergillus fumigatus; 6.25 µg/mL in the assay with Candida parapsilosis; 12.5 µg/mL with Candida albicans [5]. Further, the minimal inhibitory concentration (MIC) with Aspergillus terreus turned out to be 25 µg/mL; with Candida albicans [2] it was 3.12 µg/mL; against Candida albicans [6], 12.5 µg/mL; in the assay with Cryptococcus neoformans [7], 3.12 µg/mL; in the assay with Trichophyton benhamiae, 1.56 µg/mL; with Cryptococcus neoformans [8], 6.25 µg/mL. Also, the MIC in the assay with Talaromyces funiculosus is 12.5 µg/mL; against Sporothrix schenckii, 1.56 µg/mL; against Penicillium ochrochloron it was 12.5 µg/mL; with Candida albicans [9], 25 µg/mL; with Pichia kudriavzevii, 12.5 µg/mL; in the assay on Trichophyton rubrum, 3.12 µg/mL. Moreover, the values for the MIC with Aspergillus flavus and against Candida albicans [10] were 12.5 µg/mL and 25 µg/mL, respectively.
